Consider 3 molecules from ChEMBL document CHEMBL1158919, “Antiviral Activity of Ternatin and Meliternatin, 3-Methoxyflavones from Species of Rutaceae” (J Nat Prod, 1990).

Data set [1] deals with Poliovirus 2. In words: Antiviral activity against Poliovirus type 2 infected in african green monkey Vero cells assessed as reduction in viral titer at 5 ug/mL. The class given is functional, organism-based.
Data set [2] has as its system Vero. In words: Cytotoxicity against african green monkey Vero cells assessed as cell lysis at >800 uM after 96 hrs. Particulars: chlorocebus sabaeus. The class given is cell-based.
The test system of data set [3] is Human adenovirus 2. In words: Antiviral activity against 10^-2 MOI Human adenovirus 2 infected in african green monkey Vero cells assessed as inhibition of virus-induced cytopathic effect. In kind it is functional. Particulars: Human mastadenovirus C, read-out: ED50 (the source's name).
For data set [4], the system named is Human adenovirus 2. In words: Antiviral activity against 10^-3 MOI Human adenovirus 2 infected in african green monkey Vero cells assessed as inhibition of virus-induced cytopathic effect. The class given is functional. Particulars: Human mastadenovirus C, read-out: ED50 (the source's name).
Data set [5] can be described thus: Therapeutic index, ratio of CyD50 for african green monkey Vero cells to ED50 for 10^-2 MOI Human adenovirus 2. In kind it is cell-based. Particulars: read-out: TI.
The subject of data set [6] is Human alphaherpesvirus 1. In words: Antiviral activity against 10^-2 MOI HSV1 infected in african green monkey Vero cells assessed as inhibition of virus-induced cytopathic effect. In kind it is functional, organism-based. On the technique in general: Damage to the host cells serves as the signal in cytopathic effect assays.
In data set [7] the test system is Human alphaherpesvirus 1. In words: Antiviral activity against 10^-3 MOI HSV1 infected in african green monkey Vero cells assessed as inhibition of virus-induced cytopathic effect. The class given is functional. Particulars: Human alphaherpesvirus 1, Vero; read-out: ED50 (the source's name).
The nature of data set [8]: Therapeutic index, ratio of CyD50 for african green monkey Vero cells to ED50 for 10^-3 MOI HSV1. The settings on record: read-out: TI. In kind it is cell-based.
Data set [9] relates to Human alphaherpesvirus 2. In words: Antiviral activity against 10^-2 MOI HSV2 infected in african green monkey Vero cells assessed as inhibition of virus-induced cytopathic effect. The class given is functional. The settings on record: Human alphaherpesvirus 2, Vero; read-out: ED50 (the source's name).
Data set [10] has as its system Human alphaherpesvirus 2. In words: Antiviral activity against 10^-3 MOI HSV2 infected in african green monkey Vero cells assessed as inhibition of virus-induced cytopathic effect. The class given is functional. Particulars: Human alphaherpesvirus 2, Vero; read-out: ED50 (the source's name).
Data set [11] in a line: Therapeutic index, ratio of CyD50 for african green monkey Vero cells to ED50 for 10^-2 MOI HSV2. In kind it is cell-based. Particulars: read-out: TI.
The test system of data set [12] is Vesicular stomatitis virus. In words: Antiviral activity against 10^-2 MOI VSV infected in african green monkey Vero cells assessed as inhibition of virus-induced cytopathic effect. The settings on record: read-out: ED50 (the source's name). The class given is functional.
The test system of data set [13] is Vesicular stomatitis virus. In words: Antiviral activity against 10^-3 MOI VSV infected in african green monkey Vero cells assessed as inhibition of virus-induced cytopathic effect. The class given is functional. Particulars: read-out: ED50 (the source's name).
Data set [14] can be described thus: Therapeutic index, ratio of CyD50 for african green monkey Vero cells to ED50 for 10^-2 MOI VSV. In kind it is cell-based. The settings on record: read-out: TI.
Data set [15] is described as follows: Therapeutic index, ratio of CyD50 for african green monkey Vero cells to ED50 for 10^-3 MOI VSV. In kind it is cell-based. Particulars: read-out: TI.
The test system of data set [16] is Poliovirus 2. In words: Antiviral activity against 10^-2 MOI Poliovirus type 2 infected in african green monkey Vero cells assessed as inhibition of virus-induced cytopathic effect. The settings on record: Enterovirus C, read-out: ED50 (the source's name). The class given is functional.
The subject of data set [17] is Poliovirus 2. In words: Antiviral activity against 10^-3 MOI Poliovirus type 2 infected in african green monkey Vero cells assessed as inhibition of virus-induced cytopathic effect. The class given is functional. Particulars: Enterovirus C, read-out: ED50 (the source's name).
Data set [18] can be described thus: Therapeutic index, ratio of CyD50 for african green monkey Vero cells to ED50 for 10^-2 MOI Poliovirus 2. The class given is cell-based. Particulars: read-out: TI.
A short description of data set [19]: Therapeutic index, ratio of CyD50 for african green monkey Vero cells to ED50 for 10^-3 MOI Poliovirus 2. In kind it is cell-based. Particulars: read-out: TI.
Data set [20] can be described thus: Therapeutic index, ratio of CyD50 for african green monkey Vero cells to ED50 for 10^-3 MOI Human adenovirus 2. The class given is cell-based. The settings on record: read-out: TI.
The nature of data set [21]: Therapeutic index, ratio of CyD50 for african green monkey Vero cells to ED50 for 10^-3 MOI HSV2. In kind it is cell-based. The settings on record: read-out: TI.
For data set [22], the system named is Vero. In words: Cytotoxicity against african green monkey Vero cells up to 200 uM after 96 hrs. The class given is cell-based. Particulars: chlorocebus sabaeus.
Data set [23] has as its system Vero. In words: Cytotoxicity against african green monkey Vero cells up to 800 uM after 96 hrs. The class given is cell-based. Particulars: chlorocebus sabaeus.
Data set [24] relates to Vero. In words: Cytotoxicity against african green monkey Vero cells assessed as cell lysis at >200 uM after 96 hrs. The class given is cell-based. The settings on record: chlorocebus sabaeus.
Data set [25] relates to Poliovirus 2. In words: Antiviral activity against Poliovirus type 2 infected in african green monkey Vero cells assessed as log reduction in viral titer at 1.12 ug/mL. The class given is functional.
In data set [26] the test system is Human adenovirus 2. In words: Antiviral activity against Human adenovirus 2 infected in african green monkey Vero cells assessed as log reduction in viral titer. In kind it is functional.
In data set [27] the test system is Human alphaherpesvirus 2. In words: Antiviral activity against HSV2 infected in african green monkey Vero cells assessed as log reduction in viral titer. In kind it is functional.
In data set [28] the test system is Vesicular stomatitis virus. In words: Antiviral activity against VSV infected in african green monkey Vero cells assessed as log reduction in viral titer. The class given is functional.
Data set [29] deals with Human alphaherpesvirus 1. In words: Antiviral activity against HSV1 infected in african green monkey Vero cells assessed as log reduction in viral titer. In kind it is functional.

The source made the active and inactive calls. The rule behind the calls is not given here.

For the molecule `COc1c(-c2ccc(O)c(O)c2)oc2cc(O)cc(O)c2c1=O`, the outcome in data set [1] was Active.

Consider `COc1c(-c2ccc3c(c2)OCO3)oc2cc3c(c(OC)c2c1=O)OCO3` [MELITERNATIN], for which the Activity entry in [2] is on record as “Toxic”.

Turning to `COc1cc(-c2oc3c(OC)c(OC)cc(O)c3c(=O)c2OC)ccc1O` [TERNATIN], the EC50 in data set [3] stood at 10 µM; in [4] it was 10 µM; in data set [7], 44 µM; in [9], 100 µM; in [10], 14 µM; in [12] it was 48 µM. Moreover, the EC50 in data set [13] is 38 µM; in data set [16] it was 4 µM; in [17], 3 µM. Moreover, the selectivity ratio in data set [5] was 20; in [8], 4.6; in data set [11], 2; in data set [14] it was 4.2; in data set [15], 5.2; in data set [18], 50. Further, the selectivity ratio in data set [19] was 66.6; in data set [20] it was 20; in data set [21], 14.4. For the same molecule, the ED50 result in data set [6] is “inactive”. For the same molecule, the Activity entry was “Non-toxic” in [22]; “Non-toxic” in [23]; “Toxic” in data set [24]; 5 in data set [25]; 3 in [26]; 2 in [27]. Also, the values for the Activity in [28] and in [29] were 2 and 1, respectively.
